From PubChem BioAssay AID1845201 (Molecular Pharmacology Branch, DTP, NCI, 2023)

Test system: COR L88 complex tumor spheroid viability
Experiment: Anticancer human tumor COR L88 cell line growth inhibition;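 note: compound exposure lasted 7 days before viability readout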;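 for viability, T/C: percent of DMSO vehicle-treated spheroids = 100%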
Conditions: for IC50: curve of first compound; for viability, T/C: stronger effect = lower value
Text: Multicellular complex tumor spheroid response to DNA repair inhibitors in combination with DNA-damaging drugs
This study explores the anticancer activities of DNA-damaging drugs and inhibitors of DNA damage repair, both as single agents and in combinations. Complex tumor spheroids comprised of malignant cells, endothelial cells and mesenchymal stem cells served as an in vitro model for human solid tumors. This model system incorporates physiologically relevant features and patient-derived or established malignant cell lines with clinically relevant genetic alterations from many tumor types. Twenty-six patient-derived or established malignant cell lines were evaluated representing sarcoma, melanoma, small cell lung cancer (SCLC), non-small cell lung cancer (NSCLC), as well as bladder, ovarian and pancreatic cancers. The concentration ranges selected for each drug and investigational agent were based upon clinically achievable concentrations if the clinical Cmax of the agent was known.
Compounds. The drugs and compounds olaparib (NSC753686), talazoparib (NSC767125), berzosertib (NSC777718), elimusertib (NSC800525), nedisertib (NSC802822), VX-984 (NSC792969), AZD-1390 (NSC803789), temozolomide (NSC362856), topotecan (NSC609699), trabectedin (NSC813783), staurosporine (NSC755774), and gemcitabine (NSC613327) were obtained from the National Cancer Institute (NCI) Developmental Therapeutics Program Chemical Repository. The FDA-approved anticancer drug set is available from the Developmental Therapeutics Program at https://dtp.cancer.gov/organization/dscb/obtaining/available_plates.htm. […] The stock solutions were prepared in dimethyl sulfoxide (DMSO, Sigma-Aldrich, St. Louis, MO, cat. D2650) at 400-fold the tested concentration and stored at -70 degrees C. Prior to their use, the stock solutions were diluted in fresh medium and the final DMSO concentration in the assay was 0.25% (v/v). All drugs and investigational agents were tested over a range starting from a high concentration at or near the clinical Cmax and decreasing in half-log increments. If the clinical Cmax for an agent had not been determined, the highest concentration tested was 10 microM.
Cell Lines. The patient-derived cancer cell (PDC) lines: 156681-154-R-J1-PDC, 283228-195-R-J1-PDC, 287954-098-R-J1-PDC, 292921-168-R-J2-PDC, 349418-098-R-PDC, 425362-245-T-J1-PDC, 556581-035-R-J1-PDC, and BL0293-F563-PDC were received from the NCI Patient-Derived Models Repository (PDMR, https://pdmr.cancer.gov). The established cell lines HS-SY-2 (RRID:CVCL_8719), MPNST, and SYO-1 (RRID:CVCL_7146) were obtained from the Sloan Kettering Institute. The alveolar soft parts sarcoma cell line ASPS-1 (RRID:CVCL_S738) was established at the NCI and grown from internal seed stocks. The following established cell lines were purchased from the American Type Culture Collection (ATCC, Manassas, VA): G-401 (ATCC, cat. CRL-1441, RRID:CVCL_0270), SW982 (ATCC, cat. HTB-93, RRID:CVCL_1734), VA-ES-BJ (ATCC, cat. CRL-2138, RRID:CVCL_1785), NCI-H719 (ATCC, cat. CRL-5837, RRID:CVCL_1582), NCI-H196 (ATCC, cat. CRL-5823, RRID:CVCL_1509), NCI-H841 (ATCC, cat. CRL-5845, RRID:CVCL_1595), NCI-H1618 (ATCC, cat. CRL-5879, RRID:CVCL_1480), NCI-H1876 (ATCC, cat. CRL-5902, RRID:CVCL_1503), DMS 114 (ATCC, cat. CRL-2066; RRID:CVCL_1174), NCI-H211 (ATCC, cat. CRL-5824; RRID:CVCL_1529), and SW 1271 (ATCC, cat. CRL-2177, RRID:CVCL_1716). The small cell lung cancer cell line COR-L88 was purchased from Sigma-Aldrich (cat. 92031917-1VL, RRID:CVCL_1141). The non-small cell lung cancer cell lines NCI-H226 (RRID:CVCL_1544) and NCI-H322M (RRID:CVCL_1557) were established at the NCI and grown from internal seed stocks. Pooled donor human umbilical vein endothelial cells (HUVEC, Lonza, cat. CC-2519) and human mesenchymal stem cells (hMSC, Lonza, cat. PT-2501) were purchased from Lonza (Walkersville, MD).
Cell Culture. All cells were maintained in an incubator at 37 degrees C and 5% CO2 with 95% humidity. […]

[1] = second compound 0.003 µM, first compound 0.0316 µM
[2] = second compound 0.003 µM, first compound 0.1 µM
[3] = second compound 0.003 µM, first compound 0.316 µM
[4] = second compound 0.003 µM, first compound 1 µM
[5] = second compound 0.003 µM, first compound 3.16 µM
[6] = second compound 0.003 µM, first compound 10 µM
[7] = second compound 0.00949 µM, first compound 0.0316 µM
[8] = second compound 0.00949 µM, first compound 0.1 µM
[9] = second compound 0.00949 µM, first compound 0.316 µM
[10] = second compound 0.00949 µM, first compound 1 µM
[11] = second compound 0.00949 µM, first compound 3.16 µM
[12] = second compound 0.00949 µM, first compound 10 µM
[13] = second compound 0.03 µM, first compound 0.0316 µM
[14] = second compound 0.03 µM, first compound 0.1 µM
[15] = second compound 0.03 µM, first compound 0.316 µM
[16] = second compound 0.03 µM, first compound 1 µM
[17] = second compound 0.03 µM, first compound 3.16 µM
[18] = second compound 0.03 µM, first compound 10 µM
[19] = second compound 0.0949 µM, first compound 0.0316 µM
[20] = second compound 0.0949 µM, first compound 0.1 µM
[21] = second compound 0.0949 µM, first compound 0.316 µM
[22] = second compound 0.0949 µM, first compound 1 µM
[23] = second compound 0.0949 µM, first compound 3.16 µM
[24] = second compound 0.0949 µM, first compound 10 µM
[25] = second compound 0.3 µM, first compound 0.0316 µM
[26] = second compound 0.3 µM, first compound 0.1 µM
[27] = second compound 0.3 µM, first compound 0.316 µM
[28] = second compound 0.3 µM, first compound 1 µM
[29] = second compound 0.3 µM, first compound 3.16 µM
[30] = second compound 0.3 µM, first compound 10 µM

CC1COCCN1c1cc(-c2ccnn2C)c2ccnc(-c3ccn[nH]3)c2n1 (stereo not given) + CC[C@@]1(O)C(=O)OCc2c1cc1n(c2=O)Cc2cc3c(CN(C)C)c(O)ccc3nc2-1
IC50 (second compound 0.003 µM): 150 nM
IC50 (second compound 0.00949 µM): < 31.6 nM
IC50 (second compound 0.03 µM): < 31.6 nM
IC50 (second compound 0.0949 µM): < 31.6 nM
IC50 (second compound 0.3 µM): < 31.6 nM
viability, T/C [1]: 72.1%
viability, T/C [2]: 53.5%
viability, T/C [3]: 41.7%
viability, T/C [4]: 25.8%
viability, T/C [5]: 16.1%
viability, T/C [6]: 4.41%
viability, T/C [7]: 37.8%
viability, T/C [8]: 35.5%
viability, T/C [9]: 27.7%
viability, T/C [10]: 17.1%
viability, T/C [11]: 7.44%
viability, T/C [12]: 3.34%
viability, T/C [13]: 26.1%
viability, T/C [14]: 23%
viability, T/C [15]: 16.6%
viability, T/C [16]: 10.1%
viability, T/C [17]: 5.31%
viability, T/C [18]: 2.97%
viability, T/C [19]: 15.2%
viability, T/C [20]: 12.2%
viability, T/C [21]: 8.67%
viability, T/C [22]: 5.76%
viability, T/C [23]: 2.87%
viability, T/C [24]: 1.98%
viability, T/C [25]: 6.79%
viability, T/C [26]: 6.02%
viability, T/C [27]: 5.21%
viability, T/C [28]: 3.2%
viability, T/C [29]: 1.82%
viability, T/C [30]: 1.1%

COc1cc(C)[nH]c(=O)c1CN1CCc2c(Cl)cc(C(OC)C3COC3)c(Cl)c2C1=O (stereo not given) + CC[C@@]1(O)C(=O)OCc2c1cc1n(c2=O)Cc2cc3c(CN(C)C)c(O)ccc3nc2-1
IC50 (second compound 0.003 µM): > 10000 nM
IC50 (second compound 0.00949 µM): > 10000 nM
IC50 (second compound 0.03 µM): < 31.6 nM
IC50 (second compound 0.0949 µM): < 31.6 nM
IC50 (second compound 0.3 µM): < 31.6 nM
viability, T/C [1]: 87%
viability, T/C [2]: 90.9%
viability, T/C [3]: 83.5%
viability, T/C [4]: 85.4%
viability, T/C [5]: 86.5%
viability, T/C [6]: 75%
viability, T/C [7]: 65.7%
viability, T/C [8]: 53.2%
viability, T/C [9]: 53.3%
viability, T/C [10]: 50.9%
viability, T/C [11]: 49%
viability, T/C [12]: 52.7%
viability, T/C [13]: 43.3%
viability, T/C [14]: 44.3%
viability, T/C [15]: 38.7%
viability, T/C [16]: 39.2%
viability, T/C [17]: 35.5%
viability, T/C [18]: 17.1%
viability, T/C [19]: 46.2%
viability, T/C [20]: 43.8%
viability, T/C [21]: 41.2%
viability, T/C [22]: 45.5%
viability, T/C [23]: 38.2%
viability, T/C [24]: 19.1%
viability, T/C [25]: 47.6%
viability, T/C [26]: 46.1%
viability, T/C [27]: 41.2%
viability, T/C [28]: 42.8%
viability, T/C [29]: 41.2%
viability, T/C [30]: 37.5%
